Measured values as given in patent US10947220B2, “Anti-proprotein convertase subtilisin kexin type 9 (anti-PCSK9) compounds and methods of using the same in the treatment and/or prevention of cardiovascular diseases” (Shifa Biomedical Corporation, priority 2016, dated 2021).
Like-named read-outs stand apart in the source and are kept apart here.

What was measured:
HepG2 cells = experiment: Uptake of fluorescent Dil-LDL in HepG2 cells transfected with PCSK9; format: cell-based; details: 1.2 uM compound
Method: The SBC compounds were validated for their ability to increase uptake of Fluorescent Dil-LDL in HepG2 cells.
The SBC compounds were validated for their ability to increase uptake of Fluorescent Dil-LDL in HepG2 cells as described in FIG. 9.
In order to confirm that these PCSK9 antagonists upregulate functional LDLR, we tested the ability of these compounds to enhance the uptake of fluorescent Dil-LDL in HepG2 cells. Briefly, HepG2 cells transfected with PCSK9 (FIG. 4) were plated and allowed to grow overnight. Compounds were added to the cells followed by the addition of fluorescent Dil-LDL. Cells were washed extensively, and the fluorescent Dil-LDL taken up by the cells were measured using the Synergy 2 plate reader (FIG. 9 and FIG. 12). […] These compounds were selected for further analysis in the in vivo studies.

plasma LDL-C = experiment: Efficacy in mice fed high fat diet (plasma LDL-C); format: in vivo, C57BL/6 mice
Method: C57/Black 6 mice and BalB/C mice were maintained on the HFD for 4 weeks. Blood plasma was collected at day 1 prior to injection of the SBC compounds. Blood plasma was collected at day 4, at 4 hours after the LPS injection, and again at 24 hours after LPS injection. Plasma cholesterol, LDL-C, HDL-C, and triglyceride levels were measured enzymatically.
Blood plasma was collected at day 1 prior to injection of the compounds. Blood plasma was collected again at day 5. Plasma LDL-C levels was measured enzymatically. (FIG. 15A) Representing the actual change in the LDL-C in mg/dL and (FIG. 15B) representing the % reduction of LDL-C after the administration of SBC-115,418 for 5 days.
SBC-115,337 was tested for efficacy in male mice (C57BL/6 mice). Mice were housed as four animals per cage under climate-controlled conditions of temperature (20-24° C.), humidity (60-70%), and alternating 12 h light/dark cycles. […]
Blood samples (75 μl) were collected 4 days after drug administration from the retro-orbital venous plexus via heparinized capillary tubes containing 2 USP units of ammonium heparin per tube (Carolina, Burlington, N.C.). […] Plasma cholesterol, LDL-C, HDL-C, and triglyceride levels were measured enzymatically.
Similarly, SBC-115,418 was tested in mice as described above. […] Plasma LDL-C levels were measured enzymatically. […]

[1] = target: T1, PCSK9/LDLR interaction (His-tagged PCSK9, recombinant LDLR-AB domain) (Homo sapiens, UniProt Q8NBP7); experiment: PCSK9/LDLR binding in vitro ELISA (Circulex kit)
T1 construct: purchased Circulex
T1 sequence (Q8NBP7 153-692): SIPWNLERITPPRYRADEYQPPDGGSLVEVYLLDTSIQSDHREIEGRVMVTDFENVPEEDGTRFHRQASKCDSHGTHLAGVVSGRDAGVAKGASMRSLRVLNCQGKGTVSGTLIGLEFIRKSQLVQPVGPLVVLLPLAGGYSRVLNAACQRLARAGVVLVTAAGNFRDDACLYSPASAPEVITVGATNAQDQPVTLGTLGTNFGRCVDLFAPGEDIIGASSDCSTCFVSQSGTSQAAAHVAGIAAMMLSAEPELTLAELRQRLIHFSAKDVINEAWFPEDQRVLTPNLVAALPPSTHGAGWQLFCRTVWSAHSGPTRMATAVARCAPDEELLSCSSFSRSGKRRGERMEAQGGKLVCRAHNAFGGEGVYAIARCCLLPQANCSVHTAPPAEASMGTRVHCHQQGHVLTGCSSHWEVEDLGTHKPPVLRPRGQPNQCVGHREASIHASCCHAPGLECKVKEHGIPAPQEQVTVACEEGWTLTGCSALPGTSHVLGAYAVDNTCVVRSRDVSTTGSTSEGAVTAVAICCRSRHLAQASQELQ
T1 sequence (Q8NBP7 31-152 partner limits assumed): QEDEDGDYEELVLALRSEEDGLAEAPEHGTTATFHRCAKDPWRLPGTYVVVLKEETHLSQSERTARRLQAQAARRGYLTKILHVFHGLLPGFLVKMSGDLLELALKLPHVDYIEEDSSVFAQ
Method: For screening inhibitors of the PCSK9/LDLR interaction, different concentrations (0.01 nM-100 μM) of selected compounds were incubated with His-tagged PCSK9 and then added to wells that were pre-coated with recombinant LDLR-AB domain. After incubation, the plate was washed and the amount of recombinant His-tagged PCSK9 was measured using the biotinylated anti-His-tag and horseradish peroxidase conjugated Streptavidin, and quantitated using a BioTek Synergy 2 plate reader. The effect of each compound on the PCSK9 binding to the recombinant LDLR-AB domain was calculated.
Testing of compounds acquired from commercial sources was performed in our binding assay for their potential to inhibit the PCSK9/LDLR interaction. Initial screening was done using 100 μM of the compounds. Each compound was added to the binding reaction mixture in triplicate and assayed as described above. From the screening, a number of compounds were identified to have an effect on LDLR upregulation as compared to control (see Example 3 vide infra) while having no effect on PCSK9 processing and secretion (see Example 2 vide infra). Exemplary 2-carboxyanilide indoles and 2-carboxanilide pyrroles of the formula I that had >20% inhibition at 100 uM are shown in FIG. 1. Fifty five (55) structurally related 2-carboxyanlide benzofurans (compounds of the formulas II-IV) were also acquired. Compounds that inhibited the PCSK9/LDLR interaction were selected and analyzed using different compound concentrations ranging from 100 μM to 0.01 nM. […] (FIG. 4). Based on this preliminary SAR, an additional 34 compounds were designed and synthesized around SBC-115,337, and the compounds were tested in our binding assay as described in FIG. 4. From the screening, a number of benzofuran compounds were determined to have IC50's>10 uM but less </=50 uM (FIG. 2).

[2] = system: PCSK9 synthesis, processing and secretion; experiment: Test for secreted PCSK9 (western blot) in transfected HEK-293T cells; format: cell-based; details: 25 μM, 43 hours; cells and media
Method: HEK-293T cells were seeded into 96 well plates in a DMEM containing 10% Fetal Bovine Serum media and incubated overnight at 37° C. Cells were transiently transfected with cDNA construct using the Lipofectamine-LTX. Compounds (25 μM) or vehicle were added, followed by additional 43 hours of incubation. Cellular PCSK9, secreted PCSK9, and cell viability were analyzed as described in Example 2 below.
The SBC compounds were validated for their ability to affect PCSK9 synthesis, processing and secretion as described in relation to FIG. 5.
The increase in the level of recombinant LDLR in the presence of PCSK9 by the above compounds could be either due to inhibiting the binding of PCSK9 to the LDLR or by inhibiting the processing and secretion of PCSK9. To eliminate the possibility these compounds interfere with PCSK9 synthesis, processing or secretion, we tested the effect of these compounds on the processing and secretion of PCSK9 as described above. HEK-293T cells were seeded into 96-well plates in a DMEM containing 10% Fetal Bovine Serum media and incubated overnight at 37° C. Cells were transiently transfected with cDNA construct using the Lipofectamine-LTX. Compounds (25 μM) or vehicle were added, followed by additional 43 hours of incubation. Cellular PCSK9, secreted PCSK9, and cell viability were analyzed for PCSK9 secretion using western blot analysis, imaged and quantitated using a LAS-4000 (GE).

LDLR = experiment: Recombinant LDLR upregulation in HEK-293 cells transfected with LDLR/PCSK9; format: cell-based, human; details: recombinant LDLR upregulation assay
Method: HEK-293T cells were seeded in a DMEM containing 10% Fetal Bovine Serum media and incubated overnight at 37° C. Cells were transiently transfected with LDLR & PCSK9 cDNA constructs using the Lipofectamine-LTX as described above. After 24 hrs, cells were treated with different compounds and incubated for an additional 48 hrs. Cells were assayed as described above for LDLR expression.
HEK-293T cells were assayed as described in relation to FIG. 7.
We have constructed the expression vector of human LDLR under the control of the cytomegalovirus promoter-enhancer (pCMV-LDLR). In addition, a construct containing the PCSK9 (pCMV-PCSK9-FLAG) was described above. These constructs were used to transiently transfect mammalian cells, and both cell lysate and supernatant were subjected to SDS-PAGE and immunoblot analysis using an anti-PCSK9 or LDLR antibody. […] Addition of inhibitors of PCSK9 processing to the latter cells should result in decreased degradation of the LDLR and the appearance of the 160K Dalton band on the gel. Using this assay, we tested our compounds for their ability to reduce the degradation of the LDLR. HEK-293 cells were used in this assay. They were grown in 96-well plates overnight, and transfected with LDLR/PCSK9. Compounds dissolved in DMSO or vehicle were added to the culture media, and incubated for 24-48 hours; cells were lysed. Cell lysates were subjected to quantitation using the above immunoassay.

[3] = Table 1 / FIG. 11, SAR around SBC-115,337, read-out: IC-50
[4] = bounds stated for compounds of FIG. 2 and FIG. 3, read-out: in vitro inhibition of the PCSK9/LDLR interaction (IC50)
[5] = compound concentrations 100 μM to 0.01 nM, FIG. 4, read-out: IC50, inhibition of the PCSK9/LDLR interaction

SMILES	IC50 [1, 3] [µM]	IC50 [1, 4] [µM]	IC50 [1, 5] [µM]	fluorescent Dil-LDL uptake (HepG2 cells)	reduction in LDL-C levels relative to high fat diet animal levels (plasma LDL-C; 3 mg/kg subcutaneously daily for 4 days, with or without LPS (5 mg/Kg), FIG. 10)	effect on PCSK9 synthesis, processing and secretion [2]	level of LDLR as compared to control (DMSO-treated cells) (LDLR)	reduction in LDL-C levels relative to high fat diet animal levels (plasma LDL-C; 10 mg/kg oral daily for 5 days, FIG. 15A-15B)
COc1cccc2cc(C(=O)Nc3ccc4c(c3)C(=O)N(C)C4=O)oc12 [SBC-115,202]		< 10	9.5	increase in fluorescently labeled LDL uptake				
COc1ccc2oc(C(=O)Nc3ccc(C(=O)Nc4ccc(-c5nc6ccccc6o5)cc4)cc3)c(C)c2c1 [SBC-115,418]	1.6	< 10		significant increases in the Dil-LDL uptake		not due to its effect on synthesis and secretion of PCSK9	significant increase in the level of LDLR	20-25%
COc1cccc2c(C)c(C(=O)Nc3ccc(C(=O)Nc4ccc(-c5ncco5)cc4)cc3)oc12 [SBC-115,445]	2.2	< 10						
O=C(Nc1ccc(C2=NCCO2)cc1)c1ccc(NC(=O)c2cc3ccccc3o2)cc1 [SBC-115,432]	1.1	< 10		significant increases in the Dil-LDL uptake		not due to its effect on synthesis and secretion of PCSK9	significant increase in the level of LDLR	
COc1ccc2oc(C(=O)Nc3ccc(C(N)=O)cc3)c(C)c2c1 [SBC-115,270]		< 10	7	increase in fluorescently labeled LDL uptake				
CN(C(=O)c1ccc(NC(=O)c2cc3ccccc3o2)cc1)c1ccc(-c2nc3ccccc3o2)cc1 [SBC-115,423]	8.2	< 10						

Further lines, with some results ahead:

IC50 [1, 3] [µM]	IC50 [1, 4] [µM]	IC50 [1, 5] [µM]	SMILES	fluorescent Dil-LDL uptake (HepG2 cells)	reduction in LDL-C levels relative to high fat diet animal levels (plasma LDL-C; 3 mg/kg subcutaneously daily for 4 days, with or without LPS (5 mg/Kg), FIG. 10)	effect on PCSK9 synthesis, processing and secretion [2]	level of LDLR as compared to control (DMSO-treated cells) (LDLR)	reduction in LDL-C levels relative to high fat diet animal levels (plasma LDL-C; 10 mg/kg oral daily for 5 days, FIG. 15A-15B)
0.6	< 10	0.5	O=C(Nc1ccc(-c2nc3ccccc3o2)cc1)c1ccc(NC(=O)c2cc3ccccc3o2)cc1 [SBC-115,337]	increase in fluorescently labeled LDL uptake	20-25%			
	< 10		CN1C(=O)c2ccc(NC(=O)c3cc4ccccc4o3)cc2C1=O [SBC-115,341]					
2.4	< 10		O=C(Nc1ccc(-c2ncco2)cc1)c1ccc(NC(=O)c2cc3ccccc3o2)cc1 [SBC-115,433]	significant increases in the Dil-LDL uptake		not due to its effect on synthesis and secretion of PCSK9	significant increase in the level of LDLR	
1.7	< 10		NC(=O)c1ccc(NC(=O)c2ccc(NC(=O)c3cc4ccccc4o3)cc2)cc1 [SBC-115,424]	significant increases in the Dil-LDL uptake		not due to its effect on synthesis and secretion of PCSK9	significant increase in the level of LDLR	
